The target of this assay is T1, acid ceramidase (hACR) (Homo sapiens, UniProt Q13510).
T1 construct: expressed in transfected cells; cell lysate used
T1 sequence (Q13510 143-395 limits assumed): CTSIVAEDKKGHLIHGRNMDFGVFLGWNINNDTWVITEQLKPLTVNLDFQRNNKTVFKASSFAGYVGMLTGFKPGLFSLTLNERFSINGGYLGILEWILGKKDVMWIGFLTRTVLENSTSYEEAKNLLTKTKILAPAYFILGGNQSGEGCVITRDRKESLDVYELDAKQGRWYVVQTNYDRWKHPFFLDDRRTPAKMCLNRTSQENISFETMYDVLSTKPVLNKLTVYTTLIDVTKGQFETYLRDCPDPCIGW
T1 sequence (Q13510 22-142 limits assumed): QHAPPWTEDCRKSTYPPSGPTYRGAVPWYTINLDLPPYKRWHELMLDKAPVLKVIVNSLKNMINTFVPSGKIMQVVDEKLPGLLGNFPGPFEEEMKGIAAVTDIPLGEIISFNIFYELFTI
The assay is described as follows: Acid ceramidase inhibition, biochemical fluorescent assay with cell lysates overexpressing acid ceramidase, substrate Rbm14-12. As to conditions: cell lysates overexpressing acid ceramidase; 1 hr preincubation at RT; pH 4.5; substrate Rbm14-12 6.3 μM; read-out: hACR IC50. The method, then:
The ability of exemplary compounds to inhibit acid ceramidase was measured.
Cell lysates overexpressing acid ceramidase were used as the enzyme source for compound potency determination in a biochemical fluorescent assay. Briefly, compounds were preincubated with 10 µg protein of cell lysates in a dose-response manner for 1 hr at RT in the assay buffer containing 25 mM NaAC and 100 mM NaCl, pH 4.5. The reaction was initiated by the addition of substrate Rbm14-12 at a final concentration of 6.3 μM. The reaction was run at RT for 1 hr before it was stopped by the addition of the stopping buffer containing 20% methanol (v/v), 1 mg/ml NaIO4, 0.1 M glycine, pH 10.6. The samples were incubated with the stopping buffer at RT for 1 hr to allow the fluorescent product to be formed. Finally the plate was read with SpectraMax i3 plate reader (Molecular Devices) at ex360 nm and em446 nm. Data were collected and used to determine the IC50 values of compounds by curve fitting to the four-parameter inhibition equation.
The symbol “A” indicates inhibition of less than 0.2 μM; the symbol “B” indicates inhibition in the range of 0.2 μM up to 1 μM; and the symbol “C” indicates inhibition of greater than 1 μM.
On to `COc1cc(N2CCN(C(=O)NCCCCc3ccccc3)C(C)(C)C2=O)ccc1F` [Example 109, 4-(4-Fluoro-3-methoxy-phenyl)-2,2-dimethyl-3-oxo-N-(4-phenylbutyl)piperazine-1-carboxamide], for which the IC50 was < 200 nM.
The figure for `CC1(C)CN(C2CCCCC2)CCN1C(=O)NCCCCc1ccccc1` [Example 110, 4-Cyclohexyl-2,2-dimethyl-N-(4-phenylbutyl)piperazine-1-carboxamide] is < 200 nM; for `CC1(C)CN(C2CC2)CCN1C(=O)NCCCCc1ccccc1` [Example 111, 4-Cyclopropyl-2,2-dimethyl-N-(4-phenylbutyl)piperazine-1-carboxamide] it is < 200 nM; for `CCCCCNC(=O)N1CCN(C2CC2)CC1(C)C` [Example 112, 4-Cyclopropyl-2,2-dimethyl-N-pentylpiperazine-1-carboxamide] it is < 200 nM.
On to `C[C@@H]1CN(C(=O)NCCCCc2ccccc2)[C@@H](C)CN1C1CC1` [Example 113, (2S,5R)-4-Cyclopropyl-2,5-dimethyl-N-(4-phenylbutyl)piperazine-1-carboxamide], for which the IC50 was 200 to 1000 nM.
The figure for `CCCCCNC(=O)N1C[C@@H](C)N(C2CC2)C[C@@H]1C` [Example 114, (2S,5R)-4-cyclopropyl-2,5-dimethyl-N-pentylpiperazine-1-carboxamide] is > 1000 nM; for `CC(C)[C@@H]1CN(C2CC2)CCN1C(=O)NCCCCc1ccccc1` [Example 116, (2R)-4-Cyclopropyl-2-isopropyl-N-(4-phenylbutyl)piperazine-1-carboxamide] it is 200 to 1000 nM.
The figure for `CC(C)[C@H]1CN(C2CC2)CCN1C(=O)NCCCCc1ccccc1` [Example 117, (2S)-4-Cyclopropyl-2-isopropyl-N-(4-phenylbutyl)piperazine-1-carboxamide] is > 1000 nM.
Consider `CCCCCNC(=O)N1CCN(C2CC2)C[C@@H]1C(C)C` [Example 118, (2S)-4-Cyclopropyl-2-isopropyl-N-pentylpiperazine-1-carboxamide], for which the IC50 is > 1000 nM.
The figure for `CC1CN(C(=O)NCCCCc2ccccc2)C(C)(C)CC1=O` (centres unmarked) [Example 119, 2,2,5-Trimethyl-4-oxo-N-(4-phenylbutyl)piperidine-1-carboxamide] is > 1000 nM; for `CC1(C)CN(C(=O)NCCCCc2ccccc2)C(C)(C)CC1=O` [Example 120, 2,2,5,5-Tetramethyl-4-oxo-N-(4-phenylbutyl)piperidine-1-carboxamide] it is > 1000 nM; for `CC1(C)CC(=O)C(Cc2ccccc2)CN1C(=O)NCCCCc1ccccc1` (centres unmarked) [Example 121, 5-Benzyl-2,2-dimethyl-4-oxo-N-(4-phenylbutyl)piperidine-1-carboxamide] it is < 200 nM.
The figure for `CC1(C)CC(=O)/C(=C/c2ccccc2)CN1C(=O)NCCCCc1ccccc1` [Example 122, (5E)-5-Benzylidene-2,2-dimethyl-4-oxo-N-(4-phenylbutyl)piperidine-1-carboxamide] is < 200 nM.
The figure for `CC1(C)CC(=O)C(c2ccccc2)CN1C(=O)NCCCCc1ccccc1` (centres unmarked) [Example 123, 2,2-Dimethyl-4-oxo5-phenyl-N-(4-phenylbutyl)piperidine-1-carboxamide] is > 1000 nM; for `CCCCCNC(=O)N1CC(C)C(N2CCCCC2)CC1(C)C` (centres unmarked) [Example 124, 2,2,5-Trimethyl-N-pentyl-4-(1-piperidyl)piperidine-1-carboxamide] it is < 200 nM; for `CC1(C)CC(N2CCCCC2)C(Cc2ccccc2)CN1C(=O)NCCCCc1ccccc1` (centres unmarked) [Example 125, 5-Benzyl-2,2-dimethyl-N-(4-phenylbutyl)-4-(1-piperidyl)piperidine-1-carboxamide] it is < 200 nM.
With `CC1(C)CC(N2CCCCC2)C(Cc2ccccc2)CN1C(=O)NCCc1ccccc1` (centres unmarked) [Example 126, 5-Benzyl-2,2-dimethyl-N-(2-phenylethyl)-4-(1-piperidyl)piperidine-1-carboxamide], the IC50 is < 200 nM.

The values are drawn from patent US20220380314A1, “SUBSTITUTED, SATURATED AND UNSATURATED N-HETEROCYCLIC CARBOXAMIDES AND RELATED COMPOUNDS FOR THEIR USE IN THE TREATMENT OF MEDICAL DISORDERS” (Bial - R&D Investments, S.A., priority 2019, published 2022).
